Patent US5516797A, “Immunosuppressive compounds” (Vertex Pharmaceuticals, Incorporated, priority 1994, dated 1996)

What was measured:
[1] = test system: PBLs stimulated with LB human viral transformed B lymphoblastoid cells; experiment: MLR bioassay LB: inhibition of proliferation in mixed lymphocyte reaction; type: cell-based; settings: Lymphoblastoid cell, pulsed on day 6, harvested 24 h later
Experimental: (§1) LB and JVMhuman viraltransformed B lymphoblastoid cell lines stimulated t
(§2) proliferate in a mixed lymphocyte reaction (MLR). The compounds are
(§3) evaluated on their ability to inhibit this proliferation.
(§4) Fresh peripheral blood lymphocytes (PBLs) from LeukoPak cells or whole blood from random normal blood donors (tested HIV-negative and hepatitis negative) are isolated and separated by density centrifugation over Histopaque 1077 (Sigma Chemical Co., St. Louis, Mo.). The murine CTLL cytotoxic T cell line and the human Jurkat T cell line are from ATCC (CTLL-2 ATCC TIB214, JURKAT CLONE E6-1 ATCC TIBl52). The human allogeneic B cell lines used for activation of the fresh PBLs are EBV-transformed lymphocytes from normal healthy adult donors with two completely different HLAhaplotypes. All cell lines were routinely tested for the presence of Mycolasma contamination using the GibcoMycotect test kit and are Mycolasma-free. Culture medium consksts of RPMI 1640 (Gibco, Grand Island, N.Y.) containing penicillin (50 U/ml) and streptomycin (50 μg/ml), L-glutamine 2 mM, 2 mercaptoethanol (5×10^-5), 10% heat-inactivated FCS and 10 mM HEPES.
(§5) All chemical stocks were dissolved in DMSO.
(§6) MLR Bioassays ("LB" and "JVM")
(§7) Antigen activated proliferation of PBLs in a primary mixed lymphocyte reaction was assessed in the presence or absence of different concentrations of tested compounds and control drugs. 5×10^4 fresh PBLs were stimulated with 5×10^3 of Mitomycin C treated-allogeneic EBV-transformed β-lymphoglastoid cells, IB and JVM, in a final volume of 200 μl per well in 96-well round-bottomed plates (Mishell, B. B. and S. M. Shiigi, Selected Methods in Cellular Immunology W. H. Freeman and Co., San Francisco, Calif. (1980); Nelson, P. A. et al., Transplantation 50:286 (1990)). Cultures were pulsed on day 6, harvested 24 h later and counted as in previous section.

[2] = test system: human peripheral blood lymphocytes; experiment: Mitogenesis assay OKT3: inhibition of proliferation of human PBLs; type: cell-based; settings: Lymphocyte, OKT3 (10^-4 dilution final), 48 h incubation
Experimental: (§8) PMA and OKT3mitogens used to stimulate proliferation of human peripheral
(§9) blood lymphocytes (PBC). Compounds are evaluated on their ability to
as §4, §5
(§10) Mitogenesis Assays ("PMA" and "OKT3")
(§11) After 48 h incubation (37° C., 5% CO2), cells were pulsed with 1 μCi of ^3 H-thymidine, harvested 24 h later with a Tom Tek cell harvester, and counted in LKB β-scintillation counter.

[3] = test system: PBLs stimulated with JVM human viral transformed B lymphoblastoid cells; experiment: MLR bioassay JVM: inhibition of proliferation in mixed lymphocyte reaction; type: cell-based; settings: Lymphoblastoid cell, pulsed on day 6, harvested 24 h later
Experimental: as §1, §2, §3, §4, §5, §6, §7

[4] = molecular target: FK-506 binding protein (FKBP) (Homo sapiens, UniProt P62942); experiment: Inhibition of PPIase (rotamase) enzyme activity of FKBP (apparent Ki); type: biochemical; settings: substrate N-succinylAla-Ala-Pro-Phe-p-nitroanilide, chymotrypsin-coupled
Sequence of FK-506 binding protein (FKBP) (P62942 whole entry): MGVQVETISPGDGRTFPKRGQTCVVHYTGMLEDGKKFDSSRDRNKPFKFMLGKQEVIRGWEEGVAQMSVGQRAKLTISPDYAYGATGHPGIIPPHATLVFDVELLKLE
Source text: The inhibition of the PPIase (rotamase) enzyme activity of the FKBP (apparent "Ki" values) can also be measured according to the methods described by either Harding, M. W. et al., Nature 341:758-760 (1989) or Siekierka, J. J. et al., Nature 341:755-757 (1989). The cis-trans isomerization of the proline-alanine peptide bond in a model substrate, N-succinylAla-Ala-Pro-Phe-p-nitroanilide, is monitored spectrophotometrically in a coupled assay with chymotrypsin, which releases 4-nitroanilide from the trans form of the substrate. Fischer, G. et al., Nature 337:476-478 (1989). The inhibitory effect of the addition of different concentrations of inhibitor on the extent of the reaction is determined, and analysis of the change in first order rate constant as a function of inhibitor concentration yields an estimate of the apparent Ki value.

[5] = test system: human peripheral blood lymphocytes; experiment: Mitogenesis assay PMA: inhibition of proliferation of human PBLs; type: cell-based; settings: Lymphocyte, PMA (10 ng/ml) plus ionomycin (250 ng/ml), 48 h incubation
Experimental: as §8, §9, §4, §5, §10, §11

SMILES | IC50 [1] [µM] | IC50 [2] [µM] | IC50 [3] [µM] | Ki [4] [µM] | IC50 [5] [µM]
O=C(C(=O)N1CCCC[C@H]1C(=O)Oc1cccc2ccccc12)c1ccccc1 [Compound 5] | > 10 | > 10 | > 10 | 0.9 | > 10
CC(C)CC(=O)C(=O)N1CCCC[C@H]1C(=O)OCc1ccccc1 [Compound 7] | > 10 | > 10 | > 10 | 0.9 | > 10
C/C(=C\c1ccccc1)COC(=O)[C@@H]1CCCCN1C(=O)C(=O)c1ccccc1 [Compound 23] | > 10 | > 10 | > 10 | 1.5 | > 10
C/C(=C\[C@H]1CC[C@@H](O)CC1)COC(=O)[C@@H]1CCCCN1C(=O)C(=O)c1ccccc1 [Compound 25, (E)-3-[cis-4-(hydroxycyclohexyl)]-2-methylprop-2-enyl N-(phenylglyoxyl)-pipecolate] | > 10 | > 10 | > 10 | 0.6 | > 10
C/C(=C\[C@H]1CC[C@H](O)CC1)COC(=O)[C@@H]1CCCCN1C(=O)C(=O)c1ccccc1 [Compound 26] | > 10 | 6.5 | > 10 | 0.5 | > 10
COc1ccc(/C=C/C(=O)C(=O)N2CCCC[C@H]2C(=O)OCc2ccccc2)cc1 [Compound 45] | > 10 | > 10 | > 10 | 1 | > 10
O=C(C(=O)N1CCCC[C@H]1C(=O)OCCCCC1CCCCC1)c1ccccc1 [Compound 56] | > 10 | > 10 | 6.5 |  | > 10
COc1cc(C(=O)C(=O)N2CCCC[C@H]2C(=O)OCCCCC2CCCCC2)cc(OC)c1OC [Compound 57] | > 10 | 4.5 | 8 |  | 4
CCOc1cccc(C(=O)C(=O)N2CCCC[C@H]2C(=O)OCc2ccccc2)c1 [Compound 60] | > 10 | > 10 | > 10 | 0.56 | > 10
COc1cc(C(=O)C(=O)N2CCCC[C@H]2C(=O)OCc2cccc(Oc3ccccc3)c2)cc(OC)c1OC [Compound 61] | > 10 | 8 | > 10 |  | 4
O=C(C(=O)N1CCCC[C@H]1C(=O)OCCCCc1ccccc1)c1ccccc1 [Compound 64] | > 10 | 6 | > 10 |  | 10
C=CCOc1cccc(C(=O)C(=O)N2CCCC[C@H]2C(=O)OCc2ccccc2)c1 [Compound 65] | > 10 | > 10 | > 10 | 1 | > 10
CC(C)Oc1cccc(C(=O)C(=O)N2CCCC[C@H]2C(=O)OCc2ccccc2)c1 [Compound 66] | > 10 | > 10 | > 10 | 0.5 | > 10
CCC(C)C(=O)C(=O)N1CCCC[C@H]1C(=O)OCc1ccccc1 (some centres unmarked) [Compound 67] | > 10 | > 10 | > 10 | 1 | > 10
O=C(C(=O)N1CCCC[C@H]1C(=O)OCCc1ccccc1)c1ccccc1 [Compound 68] | > 10 | > 10 | > 10 |  | > 10
O=C(C(=O)N1CCCC[C@H]1C(=O)OCCCCCCc1ccccc1)c1ccccc1 [Compound 69] | > 10 | > 10 | > 10 | 0.5 | 6.1
COc1cc(C(=O)C(=O)N2CCCC[C@H]2C(=O)OCCCCCc2ccccc2)cc(OC)c1OC [Compound 70] | > 10 | 4.5 | 9 | 0.07 | 7

SMILES | IC50 [1] [µM] | IC50 [2] [µM] | IC50 [3] [µM] | Ki [4] [µM] | IC50 [5] [µM]
COc1cc(C(=O)C(=O)N2CCCC[C@H]2C(=O)OCc2ccc(Oc3ccccc3)cc2)cc(OC)c1OC [Compound 73] | 4.5 | > 10 | 6 | 0.8 | 8
CCCCOc1cccc(C(=O)C(=O)N2CCCC[C@H]2C(=O)OCc2ccccc2)c1 [Compound 75] | 9 | > 10 | > 10 | 0.36 | 8
CC(C)Oc1cccc(C(=O)C(=O)N2CCCC[C@H]2C(=O)OCCCCc2ccccc2)c1 [Compound 76] | 9 | 10 | > 10 | 0.1 | 5
COc1cc(C(=O)C(=O)N2CCCC[C@H]2C(=O)OCc2ccc(I)cc2)cc(OC)c1OC [Compound 78] | > 10 | > 10 | > 10 | 1.4 | > 10
COc1cc(C(=O)C(=O)N2CCCC[C@H]2C(=O)OCCc2ccc3ccccc3c2)cc(OC)c1OC [Compound 79] | > 10 | 2.5 | > 10 | 0.22 | 10
COc1cc(C(=O)C(=O)N2CCCC[C@H]2C(=O)OCCc2cccc3ccccc23)cc(OC)c1OC [Compound 80] | 10 | 4 | 10 | 0.5 | 3
COc1cc(C(=O)C(=O)N2CCCC[C@H]2C(=O)OCCCc2ccccc2)cc(OC)c1OC [Compound 83] | 8.5 | 5.5 | 7.5 | 0.11 | 5.5
COc1cc(C(=O)C(=O)N2CCCC[C@H]2C(=O)OCCCc2c[nH]c3ccccc23)cc(OC)c1OC [Compound 84] | 6 | 6 | > 10 |  | 4.5
COc1cc(C(=O)C(=O)N2CCCC[C@H]2C(=O)OCC=CCc2ccccc2)cc(OC)c1OC [Compound 86] | > 10 | > 10 | > 10 | 0.8 | 9
COc1cc(C(=O)C(=O)N2CCCC[C@H]2C(=O)OCCC=Cc2ccccc2)cc(OC)c1OC [Compound 87] | > 10 | > 10 | > 10 | 0.5 | 7
O=C(C(=O)N1CCCC[C@H]1C(=O)OCCCc1ccccc1)C1=CCCCC1 [Compound 89] | > 10 | > 10 | > 10 | 0.78 | 8
O=C(OCCCc1ccccc1)[C@@H]1CCCCN1C(=O)C(=O)C1(F)CCCCC1 [Compound 91] | > 10 | > 10 | > 10 | 0.54 | > 10
CCCCOc1cccc(C(=O)C(=O)N2CCCC[C@H]2C(=O)OCCCc2ccccc2)c1 [Compound 92] | > 10 | > 10 | > 10 | 1.4 | 9
O=C(Cc1ccccc1)C(=O)N1CCCC[C@H]1C(=O)OCCCCc1ccccc1 [Compound 95] | > 10 | > 10 | > 10 | 0.35 | > 10
CC(C)(C)c1ccc(C(=O)C(=O)N2CCCC[C@H]2C(=O)OCCCCc2ccccc2)cc1 [Compound 97] | > 10 | > 10 | > 10 | 0.6 | > 10
O=C(CC1CCCCC1)C(=O)N1CCCC[C@H]1C(=O)OCCCCc1ccccc1 [Compound 99] | > 10 | > 10 | > 10 | 0.12 | > 10
O=C(C(=O)N1CCCC[C@H]1C(=O)OCCCCc1ccccc1)c1ccc2c(c1)OCO2 [Compound 100] | > 10 | > 10 | > 10 | 0.25 | > 10
